Measurements reported in article PMC4867616, “Imaging of Cerebral Amyloid Angiopathy with Bivalent ^99mTc-Hydroxamamide Complexes” (Scientific Reports, 2016).
“And” between values parts separate entries of the source, which are not always exact repeats. Identical values can stand only once. Like-named read-outs stand apart in the source and are kept apart here.

Tests used:
CAA in Tg2576 mice = biological target: T1, CAA in Tg2576 mice (Homo sapiens, UniProt P05067); test: SPECT/CT imaging in Tg2576 and wild-type mice; assay type: in vivo; conditions: 30 min postinjection
T1 construct: Aβ(1–40) aggregates, the predominant amyloid found in CAA; tissue Taconic Farms, Inc. (New York, USA); host or cells: brain of living female Tg2576 transgenic mice
Description: SPECT/CT imaging. Tg2576 transgenic mice (female, 27 or 30 months old) and wild-type mice (female, 27 or 30 months old) were used as the Alzheimer’s model and age-matched control, respectively. A saline solution (200 μL) of [^99mTc]SB2A (29.6-55.5 MBq) containing EtOH (40 μL) was injected directly into the tail vein. At 30 or 120 min postinjection, SPECT and CT images with the brain region as the ﬁeld of view were collected using the U-SPECT-II/CT system (MILabs, Utrecht, Netherlands) with 0.6-mm pinhole collimators (SPECT conditions, 30 min × 2 frames; CT conditions, accurate full angle mode in 65 kV/615 µA). The mouse was maintained under isoflurane anesthesia, while SPECT and then CT image data were collected. SPECT images were reconstructed by the OSEM method (16 subsets, 6 iterations) with a 0.4-mm Gaussian ﬁlter.

[1] = normal mice, i.v., mean (SD), 5 animals, cited from earlier work

T1 sequence (P05067 672-711 limits assumed): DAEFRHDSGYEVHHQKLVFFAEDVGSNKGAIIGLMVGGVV

For `CN(C)c1ccc(/C=C/c2ccc(C3=N[O][99Tc-]4(=[O])([NH]3)[NH2+]C(c3ccc(/C=C/c5ccc(N(C)C)cc5)cc3)=N[O]4)cc2)cc1` (single isomer, unassigned) [[^99mTc]SB2A], the “Distribution in brains of Tg2576 versus wild-type mice (in vivo SPECT/CT)” value (CAA in Tg2576 mice) is listed as “not differentially distributed”, the “Biodistribution of radioactivity, Blood” value ([1]; 2 min after injection) is listed as 14.28 (1.90) % injected dose per gram and the “Biodistribution of radioactivity, Brain” value ([1]; 2 min after injection) is listed as 0.28 % injected dose per gram and 0.28 (0.03) % injected dose per gram. For the same compound, the “Biodistribution of radioactivity, Blood” value ([1]; 10 min after injection) was 7.50 (0.51) % injected dose per gram, the “Biodistribution of radioactivity, Brain” value ([1]; 10 min after injection) was 0.17 (0.02) % injected dose per gram and the “Biodistribution of radioactivity, Blood” value ([1]; 30 min after injection) was 5.13 % injected dose per gram and 5.13 (0.57) % injected dose per gram. For the same compound, the “Biodistribution of radioactivity, Brain” value ([1]; 30 min after injection) was 0.12 (0.01) % injected dose per gram, the “Biodistribution of radioactivity, Blood” value ([1]; 60 min after injection) was 4.17 (0.24) % injected dose per gram and the “Biodistribution of radioactivity, Brain” value ([1]; 60 min after injection) was 0.11 (0.01) % injected dose per gram.
